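GI50 marks 50% less growth. TGI marks complete inhibition of growth.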
Assays:
Test in all cases: inhibition of tumour cell growth, NCI panel, 384-well format
HCT-116 colon = tested on: HCT-116 colon
HOP-92 NSCLC = tested on: HOP-92 NSCLC
SF-295 CNS = tested on: SF-295 CNS
CCRF-CEM leukemia = tested on: CCRF-CEM leukemia
CAKI-1 renal = tested on: CAKI-1 renal
MDA-MB-468 breast = tested on: MDA-MB-468 breast
SK-MEL-28 melanoma = tested on: SK-MEL-28 melanoma
MALME-3M melanoma = tested on: MALME-3M melanoma
SK-MEL-5 melanoma = tested on: SK-MEL-5 melanoma
DU-145 prostate = tested on: DU-145 prostate
OVCAR-8 ovarian = tested on: OVCAR-8 ovarian
LOX IMVI melanoma = tested on: LOX IMVI melanoma
HCT-15 colon = tested on: HCT-15 colon
HOP-62 NSCLC = tested on: HOP-62 NSCLC
HT29 colon = tested on: HT29 colon
MCF7 breast = tested on: MCF7 breast
M14 melanoma = tested on: M14 melanoma
SK-OV-3 ovarian = tested on: SK-OV-3 ovarian
MOLT-4 leukemia = tested on: MOLT-4 leukemia
786-0 renal = tested on: 786-0 renal
IGROV1 ovarian = tested on: IGROV1 ovarian
SK-MEL-2 melanoma = tested on: SK-MEL-2 melanoma
A549 NSCLC = tested on: A549 NSCLC
TK-10 renal = tested on: TK-10 renal
COLO 205 colon = tested on: COLO 205 colon
KM12 colon = tested on: KM12 colon
NCI-H226 lung = tested on: NCI-H226 lung
NCI-H522 lung = tested on: NCI-H522 lung
UACC-62 melanoma = tested on: UACC-62 melanoma
SNB-19 CNS = tested on: SNB-19 CNS
SF-268 CNS = tested on: SF-268 CNS
SW-620 colon = tested on: SW-620 colon
A498 renal = tested on: A498 renal
PC-3 prostate = tested on: PC-3 prostate
BT-549 breast = tested on: BT-549 breast
NCI/ADR-RES ovarian = tested on: NCI/ADR-RES ovarian
K-562 leukemia = tested on: K-562 leukemia
OVCAR-3 ovarian = tested on: OVCAR-3 ovarian
EKVX NSCLC = tested on: EKVX NSCLC
ACHN renal = tested on: ACHN renal
SNB-75 CNS = tested on: SNB-75 CNS
UACC-257 melanoma = tested on: UACC-257 melanoma
NCI-H23 lung = tested on: NCI-H23 lung
NCI-H460 NSCLC = tested on: NCI-H460 NSCLC
HL-60(TB) leukemia = tested on: HL-60(TB) leukemia
RXF 393 renal = tested on: RXF 393 renal
SF-539 CNS = tested on: SF-539 CNS
RPMI-8226 leukemia = tested on: RPMI-8226 leukemia
MDA-MB-435 melanoma = tested on: MDA-MB-435 melanoma
OVCAR-4 ovarian = tested on: OVCAR-4 ovarian
NCI-H322M lung = tested on: NCI-H322M lung
HS 578T breast = tested on: HS 578T breast
U251 glioblastoma = tested on: U251 glioblastoma
HCC-2998 colon = tested on: HCC-2998 colon
SN12C renal = tested on: SN12C renal

Compound: Nc1cc2c(cc1Cl)C(=O)c1ccccc1C2=O
- GI50 (HCT-116 colon): 3.1 µM
- TGI (HCT-116 colon): 12.3 µM
- GI50 (HOP-92 NSCLC): 3.85 µM
- TGI (HOP-92 NSCLC): 13.7 µM
- GI50 (SF-295 CNS): 2.86 µM
- TGI (SF-295 CNS): 9.19 µM
- GI50 (CCRF-CEM leukemia): 71 µM
- TGI (CCRF-CEM leukemia): > 100 µM
- GI50 (CAKI-1 renal): 13.2 µM
- TGI (CAKI-1 renal): 26.3 µM
- GI50 (MDA-MB-468 breast): 0.228 µM
- TGI (MDA-MB-468 breast): 9.07 µM
- GI50 (SK-MEL-28 melanoma): 17.8 µM
- TGI (SK-MEL-28 melanoma): 42.2 µM
- GI50 (MALME-3M melanoma): 17.2 µM
- TGI (MALME-3M melanoma): 47.8 µM
- GI50 (SK-MEL-5 melanoma): 3.59 µM
- TGI (SK-MEL-5 melanoma): 50.6 µM
- GI50 (DU-145 prostate): 14.3 µM
- TGI (DU-145 prostate): 29 µM
- GI50 (OVCAR-8 ovarian): 4.16 µM
- TGI (OVCAR-8 ovarian): 13.8 µM
- GI50 (LOX IMVI melanoma): 0.276 µM
- TGI (LOX IMVI melanoma): 16.4 µM
- GI50 (HCT-15 colon): 15 µM
- TGI (HCT-15 colon): 32.3 µM
- GI50 (HOP-62 NSCLC): 2.34 µM
- TGI (HOP-62 NSCLC): 4.24 µM
- GI50 (HT29 colon): 26 µM
- TGI (HT29 colon): > 100 µM
- GI50 (MCF7 breast): 11.1 µM
- TGI (MCF7 breast): 23.3 µM
- GI50 (M14 melanoma): 14.2 µM
- TGI (M14 melanoma): 30.4 µM
- GI50 (SK-OV-3 ovarian): 4.81 µM
- TGI (SK-OV-3 ovarian): 18.4 µM
- GI50 (MOLT-4 leukemia): 23.8 µM
- TGI (MOLT-4 leukemia): 83.7 µM
- GI50 ([…]-0 renal): 2.35 µM
- TGI (786-0 renal): 8.08 µM
- GI50 (IGROV1 ovarian): 1.33 µM
- TGI (IGROV1 ovarian): 17.9 µM
- GI50 (SK-MEL-2 melanoma): 2.56 µM
- TGI (SK-MEL-2 melanoma): 7.19 µM
- GI50 (A549 NSCLC): 6.15 µM
- TGI (A549 NSCLC): 19.9 µM
- GI50 (TK-10 renal): 2.63 µM
- TGI (TK-10 renal): 12.9 µM
- GI50 (COLO 205 colon): 10.4 µM
- TGI (COLO 205 colon): 22.6 µM
- GI50 (KM12 colon): 11.1 µM
- TGI (KM12 colon): 24 µM
- GI50 (NCI-H226 lung): 1.86 µM
- TGI (NCI-H226 lung): 17 µM
- GI50 (NCI-H522 lung): 10.2 µM
- TGI (NCI-H522 lung): 21.9 µM
- GI50 (UACC-62 melanoma): 7.21 µM
- TGI (UACC-62 melanoma): 20.9 µM
- GI50 (SNB-19 CNS): 3.59 µM
- TGI (SNB-19 CNS): 12.8 µM
- GI50 (SF-268 CNS): 11.6 µM
- TGI (SF-268 CNS): 24 µM
- GI50 (SW-620 colon): 11.8 µM
- TGI (SW-620 colon): 25.1 µM
- GI50 (A498 renal): 2.18 µM
- TGI (A498 renal): 5.32 µM
- GI50 (PC-3 prostate): 10.1 µM
- TGI (PC-3 prostate): 22 µM
- GI50 (BT-549 breast): 2.67 µM
- TGI (BT-549 breast): 8.24 µM
- GI50 (NCI/ADR-RES ovarian): 4.35 µM
- TGI (NCI/ADR-RES ovarian): 17.5 µM
- GI50 (K-562 leukemia): 24.9 µM
- TGI (K-562 leukemia): 74.7 µM
- GI50 (OVCAR-3 ovarian): 6.94 µM
- TGI (OVCAR-3 ovarian): 20.4 µM
- GI50 (EKVX NSCLC): 6.17 µM
- TGI (EKVX NSCLC): 20.6 µM
- GI50 (ACHN renal): 2.47 µM
- TGI (ACHN renal): 12.7 µM
- GI50 (SNB-75 CNS): 2.92 µM
- TGI (SNB-75 CNS): 7.13 µM
- GI50 (UACC-257 melanoma): 17.6 µM
- TGI (UACC-257 melanoma): 52 µM
- GI50 (NCI-H23 lung): 2.65 µM
- TGI (NCI-H23 lung): 11.3 µM
- GI50 (NCI-H460 NSCLC): 3.76 µM
- TGI (NCI-H460 NSCLC): 13.9 µM
- GI50 (HL-60(TB) leukemia): > 100 µM
- TGI (HL-60(TB) leukemia): > 100 µM
- GI50 (RXF 393 renal): 4.01 µM
- TGI (RXF 393 renal): 15 µM
- GI50 (SF-539 CNS): 1.66 µM
- TGI (SF-539 CNS): 3.06 µM
- GI50 (RPMI-8226 leukemia): 3.13 µM
- TGI (RPMI-8226 leukemia): 12 µM
- GI50 (MDA-MB-435 melanoma): 19.9 µM
- TGI (MDA-MB-435 melanoma): 44.3 µM
- GI50 (OVCAR-4 ovarian): 1.1 µM
- TGI (OVCAR-4 ovarian): 9.47 µM
- GI50 (NCI-H322M lung): 6.15 µM
- TGI (NCI-H322M lung): 24 µM
- GI50 (HS 578T breast): 4.51 µM
- TGI (HS 578T breast): 15.8 µM
- GI50 (U251 glioblastoma): 3.21 µM
- TGI (U251 glioblastoma): 11 µM
- GI50 (HCC-2998 colon): 11 µM
- TGI (HCC-2998 colon): > 100 µM
- GI50 (SN12C renal): 4.44 µM
- TGI (SN12C renal): 16.9 µM
